Measurements published in patent US8674064B2, “Immunogenic compositions against human progastrin peptides” (Onkologix Ltd, priority 2010, dated 2014).
Ends that are not written are not given here.

Tests used:
[1] = tested on: huG17; test: ELISA antibody responses in mice after immunization with peptide-carrier conjugates; format: in vivo; conditions: three immunizations, FIG. 1
Method: FIG. 1 depicts antibody responses in mice as measured by ELISA and are in response to three immunizations with immunogens comprising each of the conjugates hG18-TT, hG18-DT, hG21-TT and hG21-DT (A, B, C and D, respectively).
(§1) The conjugate may be characterized as to immunomimic peptide content by a number of methods known to those skilled in the art including weight gain, amino acid analysis, etc. Conjugates of peptides G18 and G21 to TT produced by these methods were determined by amino acid analysis to have 10-30 moles of peptide per 104-106 MW of TT and all were considered suitable as immunogens for immunization of test animals. Similarly DT conjugates of G18 and G21, were prepared in the same manner to determine ELISA titers using huG17 as the substrate for assay of antibody binding.
The inventors constructed conjugates comprising each of the G18 and G21 peptides listed in Example 1 linked to TT and DT, as described in Examples 1 and 2. They then immunized six mice with the peptide G18 immunogen (FIGS. 1A, B) and six mice with the peptide G21 immunogen (FIGS. 1C, D).

[2] = tested on: huG17; test: ELISA antibody responses in rabbits after immunization with peptide-carrier conjugates; format: in vivo; conditions: one administration, FIG. 2
Method: FIG. 2 depicts antibody responses in rabbits, as measured by ELISA, with one administration of a conjugate constructed with peptide 1 (hG18-TT) and peptide 2 (hG21-TT) of Examples 1 and Example 2 below, per A and B, respectively.
as §1
The inventors constructed conjugates comprising each of the G18 and G21 peptides, supra, linked to TT and DT as described in Examples 1 and 2. They then immunized four rabbits with the G18 immunogen (FIG. 2A) and four rabbits with the G21 immunogen (FIG. 2B).

[3] = tested on: human gastric cancer cells (BCG-823); conditions: in vivo

Cys-pro-Pro-Pro-Pro-Ser-Ser-Gly-Trp-Met-Asp-nPhe-Gly-Arg-Arg-Ser-Ala-Glu-Asp-Glu-Asn (CPPPPSSGWMDFGRRSAEDEN; not fully specified (residues 2, 12); printed as Cys-pro-Pro-Pro-Pro-Ser-Ser-Gly-Trp-Met-Asp-nPhe-Gly-Arg-Arg-Ser-Ala-Glu-Asp-Glu-Asn) [Peptide 1]
effective: potency, eliciting of antibody and duration of the antibody responses induced (ELISA) [1] | potency, eliciting of antibody and duration of the antibody responses induced (ELISA) [2] | antibody responses effective in the presence of conventional gastric cancer chemotherapies [3] | inhibiting the growth of human gastric cancer cells [3]

pGlu-Gly-Pro-Trp-isoVal-Glu-Glu-Glu-Glu-Glu-Ala-Ser-Ser-Pro-Pro-Pro-pro-Cys (EGPWVEEEEEASSPPPPC; not fully specified (residues 1, 5, 17); printed as pGlu-Gly-Pro-Trp-isoVal-Glu-Glu-Glu-Glu-Glu-Ala-Ser-Ser-Pro-Pro-Pro-pro-Cys) [Peptide 2]
effective: potency, eliciting of antibody and duration of the antibody responses induced (ELISA) [1] | potency, eliciting of antibody and duration of the antibody responses induced (ELISA) [2] | antibody responses effective in the presence of conventional gastric cancer chemotherapies [3] | inhibiting the growth of human gastric cancer cells [3]
